pEC50: −log10 of the molar value.
test system: γ-secretase; assay: Cellular γ-secretase assay (inhibition of Aβ42 secretion); format: cell-based; conditions: human neuroglioma H4 cells overexpressing human APP, 22 hrs incubation
Method in brief: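 H4 neuroglioma cells overexpressing human APP got a ten-point compound dilution (0.4% DMSO final) for 22 h at 37 °C. Secreted Aβ42 in the supernatant was measured by electrochemiluminescence sandwich immunoassay (capture biotinylated 6E10, detection ruthenylated BAP15). IC50 came from a nonlinear regression fit.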

| Compound | pEC50 |
| --- | --- |
| Cc1cn(-c2ccc(Nc3nc4c(-c5ccc(F)cc5Cl)cccn4n3)cc2C#N)cn1 [Example 113, 5-(8-(2-chloro-4-fluorophenyl)-[1,2,4]triazolo[1,5-a]pyridin-2-ylamino)-2-(4-methyl-1H-imidazol-1-yl)benzonitrile] | 7.09 |
| COc1cc(Nc2nc3c(-c4ccc(F)cc4Cl)cccn3n2)ccc1-c1cc(C)ncn1 [Example 114, 8-(2-chloro-4-fluorophenyl)-N-(3-methoxy-4-(6-methylpyrimidin-4-yl)phenyl)-[1,2,4]triazolo[1,5-a]pyridin-2-amine] | 6.62 |
| Cc1cc(-c2ccc(Nc3nc4c(-c5ccc(F)cc5Cl)cccn4n3)cc2)nc(C)n1 [Example 115, 8-(2-chloro-4-fluorophenyl)-N-(4-(2,6-dimethylpyrimidin-4-yl)phenyl)-[1,2,4]triazolo[1,5-a]pyridin-2-amine] | 6.62 |
| COc1cc(Nc2nc3c(-c4ccc(Cl)cc4)ccc(C(C)(C)O)n3n2)ccc1-n1cnc(C)c1 [Example 116, 2-{8-(4-Chloro-phenyl)-2-[3-methoxy-4-(4-methyl-imidazol-1-yl)-phenylamino]-[1,2,4]triazolo[1,5-a]pyridin-5-yl}-propan-2-ol] | 6.93 |
| COc1cc(Nc2nc3c(-c4ccc(F)c(F)c4F)cc(C4CC4)cn3n2)ccc1-n1cnc(C)c1 [Example 120, [6-Cyclopropyl-8-(2,3,4-trifluoro-phenyl)-[1,2,4]triazolo[1,5-a]pyridin-2-yl]-[3-methoxy-4-(4-methyl-imidazol-1-yl)-phenyl]-amine] | 7.02 |
| COc1cc(Nc2nc3n(n2)C(c2ccc(F)cc2)CN(C)C3)ccc1-n1cnc(C)c1 (centres unmarked) [Example 124, 5-(4-fluorophenyl)-N-(3-methoxy-4-(4-methyl-1H-imidazol-1-yl)phenyl)-7-methyl-5,6,7,8-tetrahydro-[1,2,4]triazolo[1,5-a]pyrazin-2-amine] | 6.45 |
| COc1cc(Nc2nc3n(n2)CCN(C)C3c2ccc(F)cc2)ccc1-n1cnc(C)c1 (centres unmarked) [Example 129, 8-(4-fluorophenyl)-N-(3-methoxy-4-(4-methyl-1H-imidazol-1-yl)phenyl)-7-methyl-5,6,7,8-tetrahydro-[1,2,4]triazolo[1,5-a]pyrazin-2-amine] | 6.52 |
| COc1cc(Nc2nc3c(-c4ccc(F)cc4F)cccn3n2)ccc1-n1cnc(C)c1 [Example 132, 8-(2,4-difluorophenyl)-N-(3-methoxy-4-(4-methyl-1H-imidazol-1-yl)phenyl)-[1,2,4]triazolo[1,5-a]pyridin-2-amine] | 6.86 |
| COc1cc(Nc2nc3c(-c4ccc(F)c(F)c4)ccc(C(F)(F)F)n3n2)ccc1-n1cnc(C)c1 [Example 135, 8-(3,4-difluorophenyl)-N-(3-methoxy-4-(4-methyl-1H-imidazol-1-yl)phenyl)-5-(trifluoromethyl)-[1,2,4]triazolo[1,5-a]pyridin-2-amine] | 6.85 |
| COc1cc(Nc2nc3c(Oc4ccccc4)cccn3n2)ccc1-n1cnc(C)c1 [Example 136, N-(3-methoxy-4-(4-methyl-1H-imidazol-1-yl)phenyl)-8-phenoxy-[1,2,4]triazolo[1,5-a]pyridin-2-amine] | 6.82 |
| COc1cc(Nc2nc3c(Oc4cccc(Cl)c4)cccn3n2)ccc1-n1cnc(C)c1 [Example 137, 8-(3-chlorophenoxy)-N-(3-methoxy-4-(4-methyl-1H-imidazol-1-yl)phenyl)-[1,2,4]triazolo[1,5-a]pyridin-2-amine] | 6.58 |
| COc1cc(Nc2nc3c(N4CCC(F)CC4)cccn3n2)ccc1-n1cnc(C)c1 [Example 139, 8-(4-fluoropiperidin-1-yl)-N-(3-methoxy-4-(4-methyl-1H-imidazol-1-yl)phenyl)-[1,2,4]triazolo[1,5-a]pyridin-2-amine] | 6.51 |
| COc1cc(Nc2nc3c(N4CCC(C(F)(F)F)CC4)cccn3n2)ccc1-n1cnc(C)c1 [Example 140, N-(3-methoxy-4-(4-methyl-1H-imidazol-1-yl)phenyl)-8-(4-(trifluoromethyl)piperidin-1-yl)-[1,2,4]triazolo[1,5-a]pyridin-2-amine] | 6.74 |
| COc1cc(Nc2nc3c(N4CCC(F)(F)CC4)cccn3n2)ccc1-n1cnc(C)c1 [Example 141, 8-(4,4-difluoropiperidin-1-yl)-N-(3-methoxy-4-(4-methyl-1H-imidazol-1-yl)phenyl)-[1,2,4]triazolo[1,5-a]pyridin-2-amine] | 6.43 |
| COc1cc(Nc2nc3n(n2)CCOC3c2ccccc2)ccc1-n1cnc(C)c1 (centres unmarked) [Example 142, N-(3-methoxy-4-(4-methyl-1H-imidazol-1-yl)phenyl)-8-phenyl-6,8-dihydro-5H-[1,2,4]triazolo[5,1-c][1,4]oxazin-2-amine] | 6.63 |
| COc1cc(Nc2nc3n(n2)CCCN3c2ccc(F)c(F)c2)ccc1-n1cnc(C)c1 [Example 143, 4-(3,4-Difluorophenyl)-N-(3-methoxy-4-(4-methyl-1H-imidazol-1-yl)phenyl)-4,5,6,7-tetrahydro-[1,2,4]triazolo[1,5-a]pyrimidin-2-amine] | 6.73 |

The remaining lines, values ahead:

| pEC50 | Compound |
| --- | --- |
| 7.34 | COc1cc(Nc2nc3c(-c4ccc(F)cc4Cl)cccn3n2)cc(F)c1-n1cnc(C)c1 [Example 112, 8-(2-chloro-4-fluorophenyl)-N-(3-fluoro-5-methoxy-4-(4-methyl-1H-imidazol-1-yl)phenyl)-[1,2,4]triazolo[1,5-a]pyridin-2-amine] |
| 7.19 | COc1cc(Nc2nc3c(-c4ccc(Cl)cc4)cc(C4CC4)cn3n2)ccc1-n1cnc(C)c1 [Example 117, [8-(4-Chloro-phenyl)-6-cyclopropyl-[1,2,4]triazolo[1,5-a]pyridin-2-yl]-[3-methoxy-4-(4-methyl-imidazol-1-yl)-phenyl]-amine] |
| 7.14 | COc1cc(Nc2nc3c(-c4ccc(F)cc4)cc(C4CC4)cn3n2)ccc1-n1cnc(C)c1 [Example 118, [6-Cyclopropyl-8-(4-fluoro-phenyl)-[1,2,4]triazolo[1,5-a]pyridin-2-yl]-[3-methoxy-4-(4-methyl-imidazol-1-yl)-phenyl]-amine] |
| 7.51 | COc1cc(Nc2nc3c(-c4ccc(F)cc4)ccc(C(C)(C)O)n3n2)ccc1-n1cnc(C)c1 [Example 119, 2-{8-(4-Fluoro-phenyl)-2-[3-methoxy-4-(4-methyl-imidazol-1-yl)-phenylamino]-[1,2,4]triazolo[1,5-a]pyridin-5-yl}-propan-2-ol] |
| 7.12 | COc1cc(Nc2nc3c(-c4ccc(F)cc4Cl)ccc(C(C)(C)O)n3n2)ccc1-n1cnc(C)c1 [Example 121, 2-{8-(2-Chloro-4-fluoro-phenyl)-2-[3-methoxy-4-(4-methyl-imidazol-1-yl)-phenylamino]-[1,2,4]triazolo[1,5-a]pyridin-5-yl}-propan-2-ol] |
| 7.10 | COc1cc(Nc2nc3c(-c4ccc(F)c(F)c4F)ccc(C(C)(C)O)n3n2)ccc1-n1cnc(C)c1 [Example 122, 2-[2-[3-Methoxy-4-(4-methyl-imidazol-1-yl)-phenylamino]-8-(2,3,4-trifluoro-phenyl)-[1,2,4]triazolo[1,5-a]pyridin-5-yl]-propan-2-ol] |
| 7.54 | COc1cc(Nc2nc3c(-c4ccc(F)c(Cl)c4)ccc(C(C)(C)O)n3n2)ccc1-n1cnc(C)c1 [Example 123, 2-{8-(3-Chloro-4-fluoro-phenyl)-2-[3-methoxy-4-(4-methyl-imidazol-1-yl)-phenylamino]-[1,2,4]triazolo[1,5-a]pyridin-5-yl}-propan-2-ol] |
| 7.30 | COc1cc(Nc2nc3c(-c4ccc(Cl)cc4)cccn3n2)ccc1-n1cnc(C)c1 [Example 125, [8-(4-Chloro-phenyl)-[1,2,4]triazolo[1,5-a]pyridin-2-yl]-[3-methoxy-4-(4-methyl-imidazol-1-yl)-phenyl]-amine] |
| 7.49 | COc1cc(Nc2nc3c(-c4ccc(F)c(F)c4)cccn3n2)ccc1-n1cnc(C)c1 [Example 126, [8-(3,4-Difluoro-phenyl)-[1,2,4]triazolo[1,5-a]pyridin-2-yl]-[3-methoxy-4-(4-methyl-imidazol-1-yl)-phenyl]-amine] |
| 7.41 | COc1cc(Nc2nc3c(-c4ccc(Cl)cc4)cccn3n2)ccc1-c1ccnc(C)c1 [Example 127, [8-(4-Chloro-phenyl)-[1,2,4]triazolo[1,5-a]pyridin-2-yl]-[3-methoxy-4-(2-methyl-pyridin-4-yl)-phenyl]-amine] |
| 7.52 | COc1cc(Nc2nc3c(-c4ccc(F)c(F)c4)cccn3n2)ccc1-c1ccnc(C)c1 [Example 128, 8-(3,4-Difluorophenyl)-N-(3-methoxy-4-(2-methylpyridin-4-yl)phenyl)-[1,2,4]triazolo[1,5-a]pyridin-2-amine] |
| 7.80 | COc1cc(Nc2nc3c(-c4ccc(F)c(Cl)c4)cccn3n2)ccc1-n1cnc(C)c1 [Example 130, 8-(3-chloro-4-fluorophenyl)-N-(3-methoxy-4-(4-methyl-1H-imidazol-1-yl)phenyl)-[1,2,4]triazolo[1,5-a]pyridin-2-amine] |
| 7.42 | COc1cc(Nc2nc3c(-c4ccc(F)cc4Cl)cccn3n2)ccc1-n1cnc(C)c1 [Example 131, 8-(2-chloro-4-fluorophenyl)-N-(3-methoxy-4-(4-methyl-1H-imidazol-1-yl)phenyl)-[1,2,4]triazolo[1,5-a]pyridin-2-amine] |
| 7.35 | COc1cc(Nc2nc3c(-c4ccc(F)cc4Cl)cccn3n2)ccc1-c1ccnc(C)c1 [Example 133, [8-(2-Chloro-4-fluoro-phenyl)-[1,2,4]triazolo[1,5-a]pyridin-2-yl]-[3-methoxy-4-(2-methyl-pyridin-4-yl)-phenyl]-amine] |
| 7.16 | COc1cc(Nc2nc3c(-c4ccc(Cl)cc4)cc(C)c(C(C)(C)O)n3n2)ccc1-n1cnc(C)c1 [Example 144, 2-{8-(4-Chloro-phenyl)-2-[3-methoxy-4-(4-methyl-imidazol-1-yl)-phenylamino]-6-methyl-[1,2,4]triazolo[1,5-a]pyridin-5-yl}-propan-2-ol] |
| 7.57 | COc1cc(Nc2nc3c(-c4ccc(F)c(F)c4)ccc(C(C)(C)O)n3n2)ccc1-n1cnc(C)c1 [Example 145, 2-{8-(3,4-Difluoro-phenyl)-2-[3-methoxy-4-(4-methyl-imidazol-1-yl)-phenylamino]-[1,2,4]triazolo[1,5-a]pyridin-5-yl}-propan-2-ol] |

From patent US20110190269A1, “GAMMA SECRETASE MODULATORS” (priority 2010, published 2011)
